Publication PMC8957573 (Journal of Natural Products, 2022)

Target: T1, TAK1 (Homo sapiens, UniProt O43318)
T1 sequence (O43318 1-303 limits assumed): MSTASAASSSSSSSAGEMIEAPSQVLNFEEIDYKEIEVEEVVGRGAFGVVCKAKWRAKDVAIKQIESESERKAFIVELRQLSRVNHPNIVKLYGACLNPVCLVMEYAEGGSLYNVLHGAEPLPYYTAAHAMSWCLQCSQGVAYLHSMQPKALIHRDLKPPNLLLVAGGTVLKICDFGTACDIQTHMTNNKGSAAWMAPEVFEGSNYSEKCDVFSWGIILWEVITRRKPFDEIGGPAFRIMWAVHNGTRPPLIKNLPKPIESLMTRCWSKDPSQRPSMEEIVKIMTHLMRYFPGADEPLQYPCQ
Experiment: TAK1 inhibition assay
Format: biochemical
Settings: cis-enone RALs

COc1cc(O)c2c(c1)[C@H]1O[C@@H]1C[C@H](O)[C@H](O)C(=O)/C=C\C[C@H](C)OC2=O [Hypothemycin (1), Hypothemycin]
Inhibitory activity against TAK1 (in words): inhibit TAK1
